The values that follow come from PubChem BioAssay (NCI).

Values joined by “and” are separate entries in the source; they are usually repeats but may differ in a detail not shown here. Equal values may be shown once.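 Assay format: 96-well plates, 48-hour exposure. At the GI50, growth is halved. Definition used: TGI = concentration required for complete inhibition of growth.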

Holding throughout (assay): DTP human tumour cell line panel, 48 h
In assay [1] the test system is TK-10 renal.
Assay [2] has as its system IGROV1 ovarian.
Assay [3] concerns SK-MEL-2 melanoma.
For assay [4], the system named is SF-295 CNS.
The test system of assay [5] is MCF7 breast.
Assay [6] has as its system CCRF-CEM leukemia.
The test system of assay [7] is A498 renal.
The test system of assay [8] is UACC-257 melanoma.
For assay [9], the system named is SNB-75 CNS.
The subject of assay [10] is COLO 205 colon.

The GI50 is the concentration giving 50% growth inhibition. By TGI is commonly meant the concentration at which net growth stops. A higher TGI goes with lower sensitivity of the cells. Take `CNC(=O)c1cccc(C#Cc2cncnc2Nc2ccc(OCc3cccc(F)c3)c(Cl)c2)c1`: the GI50 was 1.46 µM in assay [1]; 4.66 µM in assay [2]; 8.82 µM in [3]; 5.45 µM in assay [4]; 4.61 µM in [5]; above 25 µM in assay [6]. Moreover, the GI50 was 1.84 µM in assay [7], 9.72 µM in assay [8], 5.26 µM in assay [9] and 7.5 µM in assay [10]. Also, the TGI in [1] is 9.03 µM; in assay [2], above 25 µM; in [3], above 25 µM; in assay [4] it was 20.5 µM; in [5], 12.5 µM; in assay [6] it was above 25 µM. Also, the TGI was 10.9 µM in [7], above 25 µM in assay [8], 14.4 µM in [9] and above 18.4 µM in assay [10].

As for `CC1Cc2ccccc2N1C(=O)Cc1nc(N2CCOCC2)cc(=O)[nH]1` (stereo not drawn), the GI50 in assay [1] is 14.5 µM and 32.1 µM; in assay [2] it was 3.09 µM and 9.02 µM; in assay [3], 37.1 µM and 49.5 µM; in [4], 3.15 µM and 6.95 µM; in [5], 2.3 µM and 4.77 µM; in assay [6], 20.7 µM and 46.7 µM. For the same compound, the GI50 in [7] is 0.026 µM and 0.0929 µM; in [8], 15.9 µM and 20.2 µM; in assay [9] it was 0.188 µM and 1.16 µM; in assay [10], 17.4 µM and 53.8 µM. For the same compound, the TGI is above 100 µM in assay [1]; 22.8 µM and 52.6 µM in assay [2]; above 100 µM in assay [3]; > 100 µM and 97.7 µM in assay [4]; above 100 µM in [5]; above 100 µM in [6]. In addition, the TGI in [7] was 0.189 µM and 0.559 µM; in assay [8], above 100 µM; in [9], > 100 µM and 23.3 µM; in assay [10] it was 46.2 µM and > 100 µM.

Take `O=[N+]([O-])c1oc2ccc3ccccc3c2c1CCO`: the TGI in [1] stood at 27.7 µM; in assay [2] it was 3.56 µM; in [3] it was 3.94 µM; in assay [4], 7.04 µM; in [5] it was 29.5 µM; in assay [6] it was 39.9 µM. Further, the TGI was 0.72 µM in [7], 4.2 µM in assay [8], 16.7 µM in [9] and 1.46 µM in [10].

Consider `Cc1ccccc1C(C(=O)NC1CCCCC1)N(C(=O)CNc1ncccc1F)c1cccc(F)c1` (stereo not drawn), for which the GI50 in assay [1] was above 56.4 µM; in [2] it was above 80 µM; in assay [3], 28.9 µM; in assay [4], 20.6 µM; in assay [5], above 100 µM; in assay [6], above 100 µM. Also, the GI50 in assay [7] is 49.6 µM; in [8], above 100 µM; in assay [9], 6.14 µM; in [10], above 100 µM. Also, the TGI in assay [1] was above 100 µM; in assay [2] it was above 100 µM; in assay [3], above 90.3 µM; in assay [4] it was above 76.8 µM; in [5], above 100 µM; in assay [6] it was above 100 µM. The TGI in assay [7] is above 100 µM; in assay [8], above 100 µM; in [9], 24.6 µM; in [10] it was above 100 µM.

Turning to `Nc1ncn([C@H]2C[C@H](OP(=O)(O)OC[C@H]3O[C@@H](n4cnc5c(=O)[nH]c(N)nc54)C[C@@H]3O)[C@@H](CO)O2)c(=O)n1`, the GI50 in assay [1] is above 100 µM; in assay [2], above 100 µM; in assay [3], above 100 µM; in assay [4], above 100 µM; in assay [5], 51.9 µM; in assay [6], 9.01 µM. The GI50 in assay [7] was above 100 µM; in assay [8] it was above 100 µM; in assay [9], above 100 µM; in [10], 41.4 µM. Moreover, the total growth inhibition concentration (TGI) in [1], in assay [2], in [3], in assay [4], in assay [5] and in [6] was above 100 µM each time. Moreover, the TGI in assay [7], in assay [8], in assay [9] and in assay [10] was above 100 µM in each case.

As for `O=C1c2c(Cl)c(Cl)c(Cl)c(Cl)c2C(=O)C2(Cl)CC=CCC12Cl` (stereo not drawn), the GI50 was 2.06 µM in assay [1]; 1.81 µM in [2]; 2.48 µM in assay [3]; 3.35 µM in assay [4]; 1.58 µM in [5]; 1.76 µM in assay [6]. For the same compound, the GI50 in [7] was 12.7 µM; in assay [8], 1.53 µM; in assay [9] it was 1.84 µM; in assay [10], 1.52 µM. Also, the TGI in [1] is 3.57 µM; in [2] it was 3.86 µM; in assay [3], 4.89 µM; in assay [4], 11.2 µM; in assay [5] it was 3.55 µM; in assay [6] it was 7.28 µM. Also, the TGI in [7] was found to be 25.3 µM; in assay [8], 2.95 µM; in assay [9], 3.34 µM; in assay [10] it was 2.89 µM.

Take `CN(C)CCOc1ccccc1NC1=C(Cl)C(=O)C(Nc2ccccc2OCCN(C)C)=C(Cl)C1=O`: the GI50 in [1] was 5.73 µM; in [2], 0.636 µM; in assay [3], 19.2 µM; in [4] it was above 38.4 µM; in assay [5] it was 0.51 µM; in [6], 0.966 µM. Moreover, the GI50 in assay [7] was above 38.2 µM; in [9], above 39.4 µM; in assay [10] it was 1.78 µM. The TGI was 12.4 µM in assay [1]; 1.48 µM in assay [2]; above 57 µM in assay [3]; above 65.9 µM in [4]; 1.18 µM in assay [5]; above 53.8 µM in assay [7]. Further, the TGI was above 41.1 µM in assay [8], above 82.1 µM in assay [9] and 3.77 µM in [10].

In the case of `CC1(C)CCC(C)(C)c2cc(NC(=O)c3ccc(C(=O)O)cc3)ccc21`, the total growth inhibition concentration (TGI) is 85.3 µM in assay [1]; above 75.6 µM in assay [2]; above 60.5 µM in assay [3]; 68.2 µM in assay [4]; above 83.2 µM in assay [5]; above 31.6 µM in [6]. The TGI is 85.1 µM in assay [7], above 100 µM in assay [8], above 100 µM in assay [9] and above 55.9 µM in assay [10].
